Data: the CheMixHub viscosity set

Assay: xn = mol fraction of the nth substance listed

Cn1ccnc1 + CCOC(C)=O
viscosity [mPa·s], 101 kPa
Conditions	298.15 K	308.15 K	318.15 K
x1 = 0.0518	0.4901	0.4509	0.417
x1 = 0.1042	0.5183	0.4734	0.4355
x1 = 0.2036	0.5796	0.524	0.4789
x1 = 0.3106	0.661	0.5919	0.5383
x1 = 0.4006	0.7306	0.6504	0.587
x1 = 0.4976	0.826	0.7281	0.6494
x1 = 0.6011	0.9571	0.8342	0.7376
x1 = 0.6961	1.09	0.9437	0.8289
x1 = 0.8012	1.266	1.082	0.9423
x1 = 0.9	1.468	1.245	1.074
x1 = 0.9496	1.57	1.331	1.144

COC(C)OC + CC1COC(=O)O1
298.15 K, 101 kPa
Conditions	viscosity [mPa·s]
x2 = 0.1205	4.91
x2 = 0.2621	6.2
x2 = 0.3779	7.53
x2 = 0.4836	9.05
x2 = 0.7185	13.82

[2H]O[2H] + [Cl-].[Li+]
viscosity [mPa·s], 101 kPa
Conditions	x2 = 0.024	x2 = 0.076	x2 = 0.141	x2 = 0.197	x2 = 0.215
298.15 K	–	1.712	3.692	–	8.914
308.15 K	1.039	1.351	3.018	–	6.744
318.15 K	0.854	1.112	2.397	4.216	5.422

CC(=O)CC(C)=O + CC(C)CCO
298.15 K, 101 kPa
Conditions	viscosity [mPa·s]
x1 = 0.1	2.622
x1 = 0.2	1.997
x1 = 0.3	1.558
x1 = 0.4	1.26
x1 = 0.5	1.063
x1 = 0.6	0.933
x1 = 0.7	0.844
x1 = 0.8	0.778
x1 = 0.9	0.729

CCCCOC(=O)c1ccccc1C(=O)OCCCC + Oc1cccc(O)c1
Conditions	viscosity [mPa·s]
293.15 K, 101 kPa, x2 = 0.35	69.1

Cn1ccnc1 + O
viscosity [mPa·s], 100 kPa
Conditions	298.15 K	308.15 K	318.15 K
x1 = 0.0499	1.322	1.024	0.821
x1 = 0.0997	1.733	1.313	1.031
x1 = 0.1496	2.155	1.611	1.239
x1 = 0.1996	2.583	1.893	1.451
x1 = 0.2991	3.413	2.423	1.806
x1 = 0.3993	3.978	2.789	2.034
x1 = 0.499	4.032	2.846	2.094
x1 = 0.5989	3.653	2.644	1.983
x1 = 0.6996	3.103	2.278	1.772
x1 = 0.7996	2.561	1.974	1.579
x1 = 0.8493	2.337	1.829	1.491
x1 = 0.8988	2.136	1.673	1.388
x1 = 0.9496	1.96	1.557	1.309

CN(C)c1ccccc1 + CCC(C)O
303.15 K, 101 kPa
Conditions	viscosity [mPa·s]
x1 = 0.0452	2.686
x1 = 0.0845	2.638
x1 = 0.1321	2.582
x1 = 0.1893	2.512
x1 = 0.2452	2.442
x1 = 0.2756	2.402
x1 = 0.3065	2.362
x1 = 0.3655	2.279
x1 = 0.4292	2.183
x1 = 0.4906	2.086
x1 = 0.6021	1.893
x1 = 0.7323	1.65
x1 = 0.8911	1.353

CC(=O)CC(C)=O + CCO
303.15 K, 101 kPa
Conditions	viscosity [mPa·s]
x1 = 0.05	0.896
x1 = 0.0997	0.825
x1 = 0.3	0.702
x1 = 0.5	0.655
x1 = 0.6989	0.644
x1 = 0.9	0.651
x1 = 0.948	0.657

CCCCN(CCCC)CCCC + CC(C)(C)O
viscosity [mPa·s], 101 kPa
Conditions	x2 = 0.0998	x2 = 0.2	x2 = 0.3	x2 = 0.4	x2 = 0.5001	x2 = 0.5999	x2 = 0.7	x2 = 0.8	x2 = 0.9006	x2 = 0.9503
303.15 K	1.189	1.202	1.267	1.324	1.394	1.499	1.637	1.878	2.323	2.732
308.15 K	1.083	1.108	1.145	1.189	1.242	1.323	1.43	1.598	1.91	2.204
313.15 K	0.9915	1.009	1.037	1.072	1.112	1.172	1.251	1.376	1.599	1.809
318.15 K	0.9113	0.9236	0.9451	0.9707	1.003	1.048	1.104	1.197	1.356	1.514
323.15 K	0.8405	0.8479	0.8641	0.8824	0.908	0.9401	0.9817	1.051	1.166	1.288

C=CC#N + CCCO
viscosity [mPa·s], 101.33 kPa
Conditions	x1 = 0.1031	x1 = 0.203	x1 = 0.307	x1 = 0.4079	x1 = 0.5104	x1 = 0.6066	x1 = 0.7057	x1 = 0.8002	x1 = 0.9032
298.15 K	1.409	1.074	0.85	0.688	0.578	0.497	0.435	0.393	0.36
303.15 K	1.264	0.975	0.778	0.635	0.538	0.465	0.412	0.373	0.343
308.15 K	1.139	0.888	0.71	0.59	0.503	0.438	0.389	0.355	0.328

CN(C)c1ccccc1 + CC(=O)c1ccccc1
viscosity [mPa·s], 101 kPa
Conditions	303.15 K	308.15 K
x1 = 0.0856	1.505	1.398
x1 = 0.1502	1.495	1.387
x1 = 0.2141	1.48	1.376
x1 = 0.2852	1.461	1.361
x1 = 0.3521	1.442	1.346
x1 = 0.4201	1.42	1.328
x1 = 0.5026	1.392	1.305
x1 = 0.5892	1.362	1.279
x1 = 0.6625	1.335	1.254
x1 = 0.7211	1.313	1.234
x1 = 0.7908	1.284	1.207
x1 = 0.8625	1.253	1.177
x1 = 0.9204	1.222	1.151
